US6921821B2, “Antagonists of melanin concentrating hormone receptor” (Abbott Laboratories, priority 2002, dated 2005)
Counter-ions that a name gives are not always drawn.

Target: T1, murine MCHR (Mus musculus, UniProt Q8JZL2)
T1 construct: expressed in transfected cells; host or cells: HEK293
Experiment: Assay for release of intracellular calcium (FLIPR, Fluo-4), inhibition of MCH-induced Ca++ flux
Type: cell-based
Settings: test compound at a dose of 10 μM, HEK293 cells expressing the murine MCHR, read-out: inhibition of MCH (MCH induced Ca++ flux / fluorescence)
How it was run: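 HEK293 cells expressing murine MCHR were loaded with Fluo-4AM (2.5 μM) and given compound (40 μM stock in 4% DMSO), with 3 min monitoring for agonism. They were then challenged with mouse MCH (12 nM as added) and FLIPR fluorescence followed 3 min more. % inhibition of MCH-induced Ca++ flux was calculated against baseline and no-compound signals.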

T1 sequence (Q8JZL2 whole entry): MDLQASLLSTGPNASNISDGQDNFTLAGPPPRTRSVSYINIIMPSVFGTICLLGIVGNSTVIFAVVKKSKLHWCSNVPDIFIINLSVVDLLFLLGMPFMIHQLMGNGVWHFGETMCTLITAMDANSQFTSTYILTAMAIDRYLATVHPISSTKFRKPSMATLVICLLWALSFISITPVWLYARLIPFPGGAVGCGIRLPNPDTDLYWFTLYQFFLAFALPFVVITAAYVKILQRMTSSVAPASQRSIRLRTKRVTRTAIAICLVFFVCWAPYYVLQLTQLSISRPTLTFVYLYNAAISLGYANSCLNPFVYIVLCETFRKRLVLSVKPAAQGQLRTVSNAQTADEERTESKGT

Inhibition at 10 µM, ≥ 50%:
O=c1cc(NC2CCN(Cc3ccc4c(c3)OCO4)CC2)c2cc(Cl)c(Cl)cc2o1 [II-117, (4-Benzo[1,3]dioxol-5-ylmethyl-piperidin-4-ylamino)-6,7-dichloro-chromen-2-one]
O=c1cc(NC2CCN(Cc3ccc4cnccc4c3)CC2)c2cc(Cl)ccc2o1 [II-73, 6-Chloro-4-(1-isoquinolin-6-ylmethyl-piperidin-4-ylamino)-chromen-2-one]
CCc1ccc2c(c1)c(NC1CCN(C(C)c3ccc4c(c3)OCO4)CC1)cc(=O)n2CC (stereo not drawn) [Compound V-18, 4-[1-(1-Benzo[1,3]dioxol-5-yl-ethyl)-piperidin-4-ylamino]-1,6-diethyl-1H-quinolin-2-one]
O=c1cc(NC2CCN(Cc3ccc4c(c3)CCO4)CC2)c2cc(Cl)ccc2o1 [II-78, 6-Chloro-4-[1-(2,3-dihydro-benzofuran-5-ylmethyl)-piperidin-4-ylamino]-chromen-2-one]
O=c1cc(NC2CCN(Cc3ccc4ccccc4c3)CC2)c2cc(Cl)ccc2n1Cc1ccncc1 [Compound V-5, 6-Chloro-4-(1-naphthalen-2-ylmethyl-piperidin-4-ylamino)-1-pyridin-4-ylmethyl-1H-quinolin-2-one]
CC(c1ccc(Cl)cc1)N1CCC(Nc2cc(=O)oc3ccc(Cl)cc23)CC1 (stereo not drawn) [II-74, 6-Chloro-4-{1-[1-(4-chloro-phenyl)-ethyl]-piperidin-4-ylamino}-chromen-2-one]
C=Cc1ccc2oc(=O)cc(NC3CCN(Cc4ccc(C)c(C)c4)CC3)c2c1 [II-46, 4-{1-(3,4-Dimethyl-benzyl)-piperidin-4-ylamino}-6-vinyl-chromen-2-one]
O=c1cc(NC2CCN(C/C=C/c3ccccc3)CC2)c2cc(Cl)ccc2o1 [III-3, 6-Chloro-4-[1-(3-phenyl-allyl)-piperidin-4-ylamino]-chromen-2-one]
COc1ccc2oc(=O)cc(NC3CCN(C/C=C/c4ccccc4)CC3)c2c1 [III-1, 6-Methoxy-4-[1-(3-phenyl-allyl)-piperidin-4-ylamino] chromen-2-one]
C=Cc1ccc2oc(=O)cc(NC3CCN(Cc4ccc5c(c4)CCO5)CC3)c2c1 [II-87, 4-[1-(2,3-Dihydro-benzofuran-5-ylmethyl)-piperidin-4-ylamino]-6-vinyl-chromen-2-one]
Cn1c(=O)c(C#N)c(NC2CCN(Cc3ccc4c(c3)OCO4)CC2)c2cc(Cl)ccc21 [Compound V-51, 4-(1-Benzo[1,3]dioxol-5-ylmethyl-piperidin-4-ylamino)-6-chloro-1-methyl-2-oxo-1,2-dihydro-quinoline-3-carbonitrile]
O=c1cc(NC2CCN(Cc3csc4ccccc34)CC2)c2cc(Cl)ccc2o1 [II-6, 4-(1-Benzo[b]thiophen-3-ylmethyl-piperidin-4-ylamino)-6-chloro-chromen-2-one]
Cn1c(=O)c(C(=O)N2CCCC2)c(NC2CCN(Cc3ccc4c(c3)OCO4)CC2)c2cc(Cl)ccc21 [Compound V-59, 4-(1-Benzo[1,3]dioxol-5-ylmethyl-piperidin-4-ylamino)-6-chloro-1-methyl-3-(pyrrolidine-1-carbonyl)-1H-quinolin-2-one]
Cn1c(=O)cc(NC2CCN(C/C=C/c3ccccc3)CC2)c2cc(Cl)ccc21 [Compound V-29, 6-Chloro-1-methyl-4-[1-(3-phenyl-allyl)-piperidin-4-ylamino]-1H-quinolin-2-one]
COc1ccc2c(c1)c(NC1CCN(C/C=C/c3ccccc3)CC1)cc(=O)n2C [Compound V-14, 6-Methoxy-1-methyl-4-[1-(3-phenyl-allyl)-piperidin-4-ylamino]-1H-quinolin-2-one]
COc1ccc2oc(=O)cc(NC3CCN(Cc4ccc(C(=O)N5CCN(Cc6ccccc6)CC5)cc4)CC3)c2c1 [II-94, 4-{1-[4-(4-Benzyl-piperazine-1-carbonyl)-benzyl]-piperidin-4-ylamino}-6-methoxy-chromen-2-one; Double TFA Salt]
O=c1cc(NC2CCN(Cc3ccc4ccccc4c3)CC2)c2cc(OC(F)F)ccc2o1 [II-32, 6-Difluoromethoxy-4-(1-naphthalen-2-ylmethyl-piperidin-4-ylamino)-chromen-2-one]
CCCCOc1ccc(CN2CCC(Nc3cc(=O)oc4ccc(OC)cc34)CC2)cc1 [II-50, 4-[1-(4-Butoxy-benzyl)-piperidin-4-ylamino]-6methoxy-chromen-2-one trifluoroacetate]
Cn1c(=O)c(C2=NC(C)(C)CO2)c(NC2CCN(Cc3ccc4c(c3)OCO4)CC2)c2cc(Cl)ccc21 [Compound V-49, 4-(1-Benzo[1,3]dioxol-5-ylmethyl-piperidin-4-ylamino)-6-chloro-3-(4,4-dimethyl-4,5-dihydro-oxazol-2-yl)-1-methyl-1H-quinolin-2-one]
O=c1cc(NC2CCN(Cc3ccc4cc[nH]c4c3)CC2)c2cc(Cl)ccc2o1 [II-31, 6-Chloro-4-[1-(1H-indol-6-ylmethyl)-piperidin-4-ylamino]-chromen-2-one]
COc1ccc2oc(=O)cc(NC3CCN(Cc4ccc(C)cc4)CC3)c2c1 [II-34, 6-Methoxy-4-[1-(4-methyl-benzyl)-piperidin-4-ylamino]-chromen-2-one trifluoroacetate]
COc1ccc2oc(=O)cc(NC3CCN(Cc4ccc5ccc(C)cc5c4)CC3)c2c1 [II-27, 6-Methoxy-4-[1-(7-methyl-naphthalen-2-ylmethyl)-piperidin-4-ylamino]-chromen-2-one trifluoroacetate]
O=c1cc(NC2CCN(Cc3ccc4ccccc4c3)CC2)c2cc(F)cc(F)c2o1 [II-85, 6,8-Difluoro-4-(1-naphthalen-2-ylmethyl-piperidin-4-ylamino)-chromen-2-one]
C/C(=C\c1ccccc1)CN1CCC(Nc2cc(=O)oc3ccc(Cl)cc23)CC1 [III-18, 6-Chloro-4-[1-(2-methyl-3-phenyl-allyl)-piperidin-4-ylamino]-chromen-2-one]
O=c1cc(NC2CCN(Cc3ccc4c(c3)OCO4)CC2)c2cc(Cl)ccc2n1Cc1ccncc1 [Compound V-4, 4-(1-Benzo[1,3]dioxol-5-ylmethylpiperidin-4-ylamino)-6-chloro-1-pyridin-4-ylmethyl-1H-quinolin-2-one]
CCc1ccc2c(c1)c(NC1CCN(Cc3ccc4ccccc4c3)CC1)cc(=O)n2C [Compound V-20, 6-Ethyl-1-methyl-4-(1-naphthalen-2-ylmethyl-piperidin-4-ylamino)-1H-quinolin-2-one]
O=c1cc(NC2CCN(C/C=C/c3cccc(Cl)c3)CC2)c2ccccc2o1 [III-9, 4-{1-[3-(3-Chloro-phenyl)-allyl]-piperidin-4-ylamino}-chromen-2-one]
